Laboratory results from patent publication US10179355B2, “Bioremediation enhancing agents and methods of use” (JRW BIOREMEDIATION, LLC, priority 2007, dated 2019).
“And” between values parts separate entries of the source, which are not always exact repeats. Equal values may be shown once.

Key:
[1] = tested on: dechlorinating bacteria known to convert PCE to ethene; assay: Set G: Additional Yeast Metabolites and Polysaccharides as Nutrients, PCE dechlorination microcosms (kinetics, Relative Rate, paired t-test); type: cell-based, Dehalococcoides and Dehalobacter spp.
Text: Certain contaminated materials (or sites) may contain indigenous microbial communities that are sufficient for complete bioremediation of contaminants. For such sites, there is no need to add microbes unless the indigenous microbes are genetically deficient in achieving the desired clean-up goals. For those sites that are microbiologically limited, microorganisms may be added to the contaminated materials (or sites). In one embodiment, the inoculum may be a mixed culture of halo-respiring bacteria that have been enriched to reach an optimal cell density. These mixed cultures of halo-respiring bacteria may be typically obtained from sediment samples from rivers, streams or any waterways. More specifically, the inoculum used in the Examples was originated from a Sangamon River sediment sample (Lodge Park, Piatt County, Ill.) See, e.g., Brennan, R. A., Sanford, R. A. and Werth, C. J. (2006). “Biodegradation of Tetrachloroethene by Chitin Fermentation Products in a Continuous Flow Column System.” Journal of Environ. Engr., June 665-673. This culture had grown for several years on PCE, anaerobic basal salts medium, Wolfe's vitamin solution and various electron donors including lactate (1-2 millimolar (mM)), formate (4 mM) and chitin using the Volatile Interface Transfer Apparatus (VITA) reactor system at the University of Illinois. Brennan, R. A., and Sanford, R. A. (2002). “Continuous steady-state method using Tenax for delivering tetrachloroethene to chlororespiring bacteria.” Appl. Environ. Microbiol., 68(3), 1464-1467. […] Using 16S rRNA gene-specific primers, both Dehalococcoides and Dehalobacter spp. were detected. Quantitative real-time PCR has been used to determine that approximately 1.65×10^7 Dehalococcoides gene copies were present per ml of culture.
For purpose of this disclosure, each bottle may be started with a certain amount of PCE. At subsequent times each bottle may be sampled for the degradation daughter products of PCE, namely trichloroethene (TCE), cis-dichloroethene (DCE), vinyl chloride (VC) and ethene, etc. Trans-DCE and 1,1-DCE are also daughter products of PCE, but they may not be detectable under the conditions disclosed here.
The rate of degradation may be determined by calculating the number of pmoles of chloride ions removed from PCE and subsequently from the amounts of the daughter products generated. The calculation may be performed as follows: Chloride (μmoles)=[…]−4×PCE (μmoles)−3×TCE (pmoles)−2×DCE (μmoles)−VC (μmoles)
The alternative chloride calculation is: Chloride (μmoles)=TCE (μmoles)+2×DCE (μmoles)+3×VC (μmoles)+4×Ethene (μmoles)
Next, the dechlorination rate may be determined for each bottle at each time by dividing the Chloride generated by the time (days). The data may be then normalized to the lactate control by taking the ratio of Chloride Rate (pmoles/day) and the Lactate Control Chloride Rate (pmoles/day). This ratio is called Relative Rate and is dimensionless.
As shown in the Examples, a paired t-test has been conducted to calculate the probability that the Relative Rate of one group (i.e. with Nutrient) is greater than the other group (i.e. without Nutrient). The null hypothesis is that the underlying means of the two paired groups are equal. The Probability that one group has higher Relative Rates than the other group is shown in various tables in the Examples.
The following components were used in the system for bioremediating contaminated ground water microcosms in Examples 2-8: • 160 milliliter (ml) stoppered serum bottles • 100 ml of anaerobic culture medium, groundwater containing an excess of bioavailable phosphorus and nitrogen at 0.5 mM Phosphate and 1 mM ammonium degassed with a nitrogen sparge • Nominally 1 gram of limestone • 19.54 micromoles (pmoles) Perchloroethene (PCE) • An excess of various electron donors were utilized • 3 ml of inoculum containing dechlorinating bacteria known to convert PCE to ethene. […]

[2] = tested on: dechlorinating bacteria known to convert PCE to ethene; assay: Set B: Efficiency of electron donor utilization by COD analysis; type: cell-based, Dehalococcoides and Dehalobacter spp.
Text: Sets B, C, D, E, and G further contain figures and tables showing results of the characterization of the Efficiency and the Relative Efficiency of electron donor usage. Efficiency may be defined as the percent of electron donor utilized for dechlorination, and may be calculated by dividing the pmoles of Chloride ion generated by the pmoles of electron donor consumed as measured by either Volatile Fatty Acid (VFA) analysis (Sets B, C, and G) or Chemical Oxygen Demand (COD) analysis (Set D and E). The Relative Efficiency of the electron donor utilization may be defined as the Efficiency of the Electron Donor divided by the Efficiency of the Lactate Control.
Table 10 and FIG. 9 show the efficiency of electron donor (e^−) utilization as measured by COD analysis. The COD analysis calculates the utilization of electron donor by measuring the starting COD and the final COD taking the difference and converting mg/L to pmoles of electrons. The pmoles of electrons used for dechlorination was determined from the calculated Chloride produced leading to an Efficiency and Relative Efficiency of electron donor utilization as compared to lactate.

CC(O)C(=O)[O-].[Na+] (centres unmarked) [Lactate Control, sodium lactate]
Cl^− Rate ± s.d. ([1]; 0 days): 0.00 ± 0.00 µmol
Cl^− ± s.d. ([1]; 0 days): 0.00 ± 0.00 µmol
DCE ± s.d. ([1]; 0 days): 0.00 ± 0.00 µmol
Ethene ± s.d. ([1]; 0 days): 0.00 ± 0.00 µmol
PCE ± s.d. ([1]; 0 days): 20.80 ± 0.95 µmol
TCE ± s.d. ([1]; 0 days): 0.00 ± 0.00 µmol
VC ± s.d. ([1]; 0 days): 0.00 ± 0.00 µmol
Cl^− Rate ± s.d. ([1]; 21 days): 0.13 ± 0.05 µmol
Cl^− ± s.d. ([1]; 21 days): 2.83 ± 1.04 µmol
DCE ± s.d. ([1]; 21 days): 0.31 ± 0.18 µmol
Ethene ± s.d. ([1]; 21 days): 0.07 ± 0.01 µmol
PCE ± s.d. ([1]; 21 days): 18.6 ± 0.45 µmol
TCE ± s.d. ([1]; 21 days): 1.91 ± 0.71 µmol
VC ± s.d. ([1]; 21 days): 0.00 ± 0.00 µmol
Cl^− Rate ± s.d. ([1]; 35 days): 0.26 ± 0.10 µmol
Cl^− ± s.d. ([1]; 35 days): 8.95 ± 3.33 µmol
DCE ± s.d. ([1]; 35 days): 1.39 ± 0.72 µmol
Ethene ± s.d. ([1]; 35 days): 0.07 ± 0.00 µmol
PCE ± s.d. ([1]; 35 days): 10.80 ± 1.36 µmol
TCE ± s.d. ([1]; 35 days): 5.91 ± 1.90 µmol
VC ± s.d. ([1]; 35 days): 0.00 ± 0.00 µmol
Cl^− Rate ± s.d. ([1]; 50 days): 0.49 ± 0.10 µmol
Cl^− ± s.d. ([1]; 50 days): 24.59 ± 5.08 µmol
DCE ± s.d. ([1]; 50 days): 9.70 ± 2.99 µmol
Ethene ± s.d. ([1]; 50 days): 0.07 ± 0.00 µmol
PCE ± s.d. ([1]; 50 days): 3.13 ± 1.26 µmol
TCE ± s.d. ([1]; 50 days): 4.92 ± 1.03 µmol
VC ± s.d. ([1]; 50 days): 0.00 ± 0.00 µmol
Cl^− Rate ± s.d. ([1]; 79 days): 0.53 ± 0.02 µmol
Cl^− ± s.d. ([1]; 79 days): 42.00 ± 1.93 µmol
DCE ± s.d. ([1]; 79 days): 20.84 ± 0.96 µmol
Ethene ± s.d. ([1]; 79 days): 0.07 ± 0.00 µmol
PCE ± s.d. ([1]; 79 days): 0.00 ± 0.00 µmol
TCE ± s.d. ([1]; 79 days): 0.04 ± 0.07 µmol
VC ± s.d. ([1]; 79 days): 0.00 ± 0.01 µmol
Cl^− Rate ± s.d. ([1]; 138 days): 0.24 ± 0.01 µmol
Cl^− ± s.d. ([1]; 138 days): 33.42 ± 1.26 µmol
DCE ± s.d. ([1]; 138 days): 16.55 ± 0.64 µmol
Ethene ± s.d. ([1]; 138 days): 0.06 ± 0.00 µmol
PCE ± s.d. ([1]; 138 days): 0.00 ± 0.00 µmol
TCE ± s.d. ([1]; 138 days): 0.00 ± 0.00 µmol
VC ± s.d. ([1]; 138 days): 0.03 ± 0.03 µmol
Relative Rate ([1]; bottle 1, 21 days): 0.78
Relative Rate ([1]; bottle 1, 35 days): 0.63
Relative Rate ([1]; bottle 1, 50 days): 0.86
Relative Rate ([1]; bottle 1, 79 days): 1.08
Relative Rate ([1]; bottle 1, 138 days): 0.51
Relative Rate ([1]; bottle 2, 21 days): 1.43
Relative Rate ([1]; bottle 2, 35 days): 1.37
Relative Rate ([1]; bottle 2, 50 days): 1.24
Relative Rate ([1]; bottle 2, 79 days): 1.13
Relative Rate ([1]; bottle 2, 138 days): 0.49
Relative Rate ([1]; bottle 3, 21 days): 0.80
Relative Rate ([1]; bottle 3, 35 days): 1.00
Relative Rate ([1]; bottle 3, 50 days): 0.90
Relative Rate ([1]; bottle 3, 79 days): 1.03
Relative Rate ([1]; bottle 3, 138 days): 0.48
dechlorination kinetics / completeness of dechlorination (in words) ([1]; through 138 days): statistically higher dechlorination kinetics as compared to PS1 and molasses
Relative Rate ([1]; time 21 days, bottles 1-3): 1.43 and 0.80 and 0.78
Relative Rate ([1]; time 50 days, bottles 1-3): 1.24 and 0.90 and 0.86
Relative Rate ([1]; time 79 days, bottles 1-3): 1.08 and 1.13 and 1.03
Relative Rate ([1]; time 138 days, bottles 1-3): 0.51 and 0.49 and 0.48
% of e^− used for dechlor. [2]: 13.1%
Chloride ([2]; Efficiency by COD analysis): 77.16 pmol
Relative Efficiency ([2]; relative to Lactate Control): 100%
